From patent USRE48267E1, “Variants of C-type natriuretic peptide” (priority 2009, dated 2020)
Where a SMILES comes first, the peptide text is derived from it. Bridges are numbered along the chain shown (N, C = ends). The star is where a group is joined. MeO(CH2CH2O)23CH2CH2CO = COCCOCCOCCOCCOCCOCCOCCOCCOCCOCCOCCOCCOCCOCCOCCOCCOCCOCCOCCOCCOCCOCCOCCOCCC(=O)*

Legend:
cGMP = experiment: plasma cGMP concentration in rats; type: in vivo, rat
Method: Recombinant wild-type CNP22, CNP37 and PEO24-GANRR-CNP22 (K4R) (SEQ ID NO: 36) were evaluated.
Plasma cGMP concentrations in the sample at 5, 30, 60 and 90 minutes after i.v. dosing, or at 5, 30, 60, 120 and 180 minutes after s.c. dosing, were determined by the competitive RIA using anti-cGMP monoclonal antibody. Standard samples were prepared. 100 uL of the assay samples (standard solutions for the calibration curve or the diluted plasma samples for cGMP determination) were transferred to test tubes. Then 100 uL of anti-cGMP monoclonal antibody solution and 100 uL of ^125I-labeled succinyl cGMP tyrosine methyl ester solution were added to the tubes, respectively. All tubes were kept at 4° C. overnight. After the addition of 500 uL dextran charcoal solution, the tubes were vortexed and then placed on ice for 10 minutes. The reaction mixture was centrifuged and 500 uL of the supernatant was transferred from each sample to a new test tube. The amount of radiation (gamma line) in the supernatant was measured by a gamma-counter.

NPR-B = biological target: T1, NPR-B (Mus musculus, UniProt Q6VVW5); experiment: stimulation of cGMP production in NIH3T3 cells; type: cell-based, murine; details: NIH3T3 cells
T1 construct: Murine NIH3T3 cells express endogenously the CNP signaling receptor, NPR-B; endogenous in cells; host or cells: NIH3T3
T1 sequence (Q6VVW5 17-1047): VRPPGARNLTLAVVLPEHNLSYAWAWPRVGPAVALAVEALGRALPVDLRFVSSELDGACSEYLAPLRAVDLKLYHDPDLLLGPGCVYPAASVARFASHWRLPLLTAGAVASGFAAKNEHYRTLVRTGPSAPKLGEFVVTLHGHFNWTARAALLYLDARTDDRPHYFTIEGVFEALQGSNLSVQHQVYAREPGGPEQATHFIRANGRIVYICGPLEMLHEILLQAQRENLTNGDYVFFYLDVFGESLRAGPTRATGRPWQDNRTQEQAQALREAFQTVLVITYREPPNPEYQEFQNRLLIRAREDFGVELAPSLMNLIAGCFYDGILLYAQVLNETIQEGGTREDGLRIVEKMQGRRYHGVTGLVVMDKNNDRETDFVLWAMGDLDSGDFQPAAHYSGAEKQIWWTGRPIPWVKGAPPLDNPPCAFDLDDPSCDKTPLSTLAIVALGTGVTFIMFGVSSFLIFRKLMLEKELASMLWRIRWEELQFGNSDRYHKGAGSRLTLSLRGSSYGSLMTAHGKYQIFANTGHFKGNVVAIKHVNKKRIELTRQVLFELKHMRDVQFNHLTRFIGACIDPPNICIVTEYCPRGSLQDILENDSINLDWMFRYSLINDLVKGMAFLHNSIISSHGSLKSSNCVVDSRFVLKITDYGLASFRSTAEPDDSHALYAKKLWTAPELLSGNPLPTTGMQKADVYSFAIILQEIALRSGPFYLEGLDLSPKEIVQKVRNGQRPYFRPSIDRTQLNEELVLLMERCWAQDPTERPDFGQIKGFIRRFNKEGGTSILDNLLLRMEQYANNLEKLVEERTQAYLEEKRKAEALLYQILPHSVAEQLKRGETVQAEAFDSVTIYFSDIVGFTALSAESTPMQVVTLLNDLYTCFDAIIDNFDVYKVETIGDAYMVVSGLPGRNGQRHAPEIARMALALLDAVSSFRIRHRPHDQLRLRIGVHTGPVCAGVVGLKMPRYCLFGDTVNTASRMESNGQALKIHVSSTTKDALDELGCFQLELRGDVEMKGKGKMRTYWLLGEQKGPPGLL
Method: To determine the functional activity of CNP variants, the production of cGMP was measured in NIH3T3 cells exposed to the CNP variants. Murine NIH3T3 cells express endogenously the CNP signaling receptor, NPR-B, which shares 98% protein sequence identity with human NPR-B. NIH3T3 cells were cultured in high glucose Dulbecco's Modified Eagle Medium supplemented with 10% fetal calf serum and antibiotics at 37° C. with 5% CO2). Twenty four to 48 hours prior to signaling, cells were passaged to 12-well plates with a density of 2-5×10^5 cells per well at the time of the assay. CNP variants were resuspended in 1 mM HCl to a stock concentration of 1 mg/mL (455 uM for wtCNP22) and subsequently diluted to a 30 uM working stock solution with phosphate-buffered saline (PBS). Ten-fold serial dilutions were prepared in phosphate-buffered saline. Culture medium was removed from the cells and replaced with 0.4 mL PBS/Dulbecco's modified Eagle medium (50/50, v/v) containing 0.75 mM isobutylmethylxanine. Plates were incubated at 37° C., 5% CO2 for 15 minutes before addition of 0.2 mL CNP variant in PBS and continued incubation at 37° C. for 15 minutes. Reactions were stopped by the addition of 0.2 mL lysis buffer supplied with the CatchPoint cGMP assay kit (Molecular Devices), and cGMP production was determined with the CatchPoint cGMP Assay (Molecular Devices). All stimulation experiments were performed in duplicate.
Tables 1-4 summarize the ability of CNP variants having backbone or side chain modifications, amino acid substitutions, N-terminal amino acid extensions, and/or N-terminal PEGylation, respectively, to stimulate cGMP production in NIH3T3 cells. In all four tables, the values for cGMP production in NIH3T3 cells exposed to 10 nM or 1 uM CNP variant are normalized to cell number and cGMP production in the presence of 1 uM wtCNP22.

CC[C@H](C)[C@@H]1NC(=O)[C@H](CCCNC(=N)N)NC(=O)[C@H](CC(=O)O)NC(=O)[C@H](CC(C)C)NC(=O)[C@H](CCCCN)NC(=O)[C@H](CC(C)C)NC(=O)CNC(=O)[C@H](Cc2ccccc2)NC(=O)[C@@H](NC(=O)CNC(=O)[C@H](CCCNC(=N)N)NC(=O)[C@H](CO)NC(=O)[C@H](CC(C)C)NC(=O)CNC(=O)[C@H](CCCNC(=N)N)NC(=O)[C@H](CCCNC(=N)N)NC(=O)[C@H](CC(N)=O)NC(=O)[C@H](C)NC(=O)CNC(=O)CCOCCOCCOCCOCCOCCOCCOCCOCCOCCOCCOCCOCCOCCOCCOCCOCCOCCOCCOCCOCCOCCOCCOCCOC)CSSC[C@@H](C(=O)O)NC(=O)CNC(=O)[C@H](CC(C)C)NC(=O)CNC(=O)[C@H](CO)NC(=O)[C@H](CCSC)NC(=O)[C@H](CO)NC(=O)CNC1=O [PEO24-GANRR-CNP22(K4R)] ({MeO(CH2CH2O)23CH2CH2CO}-GANRRGLSRGCFGLKLDRIGSMSGLGC-OH; disulfide 11-27)
plasma levels of cGMP compared with CNP22 (cGMP; i.v. 20 nmol/kg, at 30, 60 and 90 minutes): much higher plasma levels of cGMP | plasma concentrations of cGMP compared with CNP22 (cGMP; s.c. 50 nmol/kg): substantially higher plasma concentrations of cGMP | NPR-B stimulation activity / cGMP production compared with wtCNP22 (in words) (NPR-B): stimulated greater cGMP production than PEO24-CNP22 and PEO24-CNP22 (K4R)
